Results: ChEMBL document CHEMBL1909046, “DrugMatrix in vitro pharmacology data”

Key:
[1] = target: T1, Angiotensin-converting enzyme (Oryctolagus cuniculus, UniProt P12822); type: tissue-based, Lung;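 note: enzymatic inhibition of angiotensin-converting enzyme measured with FAPGG as the substrate; in other assays of this panel Not Active means under 50% inhibition at 10 µM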
T1 sequence (P12822 whole entry): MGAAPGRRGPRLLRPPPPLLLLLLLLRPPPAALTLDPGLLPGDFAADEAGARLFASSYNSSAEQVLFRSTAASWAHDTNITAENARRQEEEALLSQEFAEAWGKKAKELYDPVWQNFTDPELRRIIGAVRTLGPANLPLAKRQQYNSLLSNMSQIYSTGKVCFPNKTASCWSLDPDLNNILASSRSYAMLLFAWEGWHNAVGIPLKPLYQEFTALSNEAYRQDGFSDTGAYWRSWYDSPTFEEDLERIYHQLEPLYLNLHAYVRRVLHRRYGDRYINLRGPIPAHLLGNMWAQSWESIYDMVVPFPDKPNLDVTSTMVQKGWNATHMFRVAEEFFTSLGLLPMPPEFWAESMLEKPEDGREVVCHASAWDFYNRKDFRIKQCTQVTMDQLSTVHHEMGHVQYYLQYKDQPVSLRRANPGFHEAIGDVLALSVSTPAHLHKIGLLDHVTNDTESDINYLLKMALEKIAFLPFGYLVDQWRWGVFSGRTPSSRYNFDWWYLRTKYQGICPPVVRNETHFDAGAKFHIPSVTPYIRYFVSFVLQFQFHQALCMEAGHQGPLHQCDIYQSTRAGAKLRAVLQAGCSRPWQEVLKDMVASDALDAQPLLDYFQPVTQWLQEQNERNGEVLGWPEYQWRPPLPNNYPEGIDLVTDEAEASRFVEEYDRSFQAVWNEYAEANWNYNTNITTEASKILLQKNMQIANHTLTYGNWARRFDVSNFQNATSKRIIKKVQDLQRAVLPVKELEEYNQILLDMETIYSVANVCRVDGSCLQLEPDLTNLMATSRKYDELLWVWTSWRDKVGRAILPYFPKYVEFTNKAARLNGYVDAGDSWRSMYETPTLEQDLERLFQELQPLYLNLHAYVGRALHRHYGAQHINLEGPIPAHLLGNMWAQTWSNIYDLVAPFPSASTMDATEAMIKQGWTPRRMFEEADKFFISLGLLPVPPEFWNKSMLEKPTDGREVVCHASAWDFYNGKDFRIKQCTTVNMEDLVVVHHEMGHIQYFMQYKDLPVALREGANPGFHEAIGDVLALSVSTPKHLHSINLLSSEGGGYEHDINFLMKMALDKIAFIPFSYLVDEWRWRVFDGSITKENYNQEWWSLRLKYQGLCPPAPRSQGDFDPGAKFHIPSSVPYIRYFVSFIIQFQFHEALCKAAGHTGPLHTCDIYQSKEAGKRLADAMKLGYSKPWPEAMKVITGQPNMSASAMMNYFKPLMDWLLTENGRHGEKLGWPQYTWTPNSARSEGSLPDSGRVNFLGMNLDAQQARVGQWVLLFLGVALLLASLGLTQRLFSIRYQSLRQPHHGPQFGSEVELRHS

Interstitial collagenase = target: T2, Interstitial collagenase (Homo sapiens, UniProt P03956); assay: biochemical; type: tissue-based, Rheumatoid synovial fibroblasts;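 note: MMP-1 enzyme inhibition assay using a peptide substrate; in other assays of this panel Not Active means under 50% inhibition at 10 µM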
T2 sequence (P03956 whole entry): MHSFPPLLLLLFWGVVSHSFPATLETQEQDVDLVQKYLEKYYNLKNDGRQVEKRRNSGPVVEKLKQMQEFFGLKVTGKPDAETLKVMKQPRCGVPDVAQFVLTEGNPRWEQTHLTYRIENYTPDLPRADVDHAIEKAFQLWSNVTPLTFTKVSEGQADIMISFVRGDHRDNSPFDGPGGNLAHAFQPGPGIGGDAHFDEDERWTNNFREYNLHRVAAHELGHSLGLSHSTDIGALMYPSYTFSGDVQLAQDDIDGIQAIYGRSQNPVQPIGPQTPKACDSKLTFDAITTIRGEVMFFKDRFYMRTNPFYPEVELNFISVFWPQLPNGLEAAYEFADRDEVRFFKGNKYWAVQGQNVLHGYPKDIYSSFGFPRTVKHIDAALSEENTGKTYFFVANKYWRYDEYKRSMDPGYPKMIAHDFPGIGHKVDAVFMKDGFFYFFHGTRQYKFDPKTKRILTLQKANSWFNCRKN

[2] = target: Mitogen-activated protein kinase 14 (Homo sapiens, UniProt Q16539); set-up: species or system Escherichia coli;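 note: inhibition of p38alpha enzyme activity in a biochemical kinase assay, with myelin basic protein serving as substrate; in other assays of this panel Not Active means under 50% inhibition at 10 µM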
[3] = target: T3, Cholecystokinin receptor type A (Homo sapiens, UniProt P32238); type: cell membranes, Membrane; settings: 1321-n1; note: in other assays of this panel Not Active means under 50% inhibition at 10 µM
T3 sequence (P32238 whole entry): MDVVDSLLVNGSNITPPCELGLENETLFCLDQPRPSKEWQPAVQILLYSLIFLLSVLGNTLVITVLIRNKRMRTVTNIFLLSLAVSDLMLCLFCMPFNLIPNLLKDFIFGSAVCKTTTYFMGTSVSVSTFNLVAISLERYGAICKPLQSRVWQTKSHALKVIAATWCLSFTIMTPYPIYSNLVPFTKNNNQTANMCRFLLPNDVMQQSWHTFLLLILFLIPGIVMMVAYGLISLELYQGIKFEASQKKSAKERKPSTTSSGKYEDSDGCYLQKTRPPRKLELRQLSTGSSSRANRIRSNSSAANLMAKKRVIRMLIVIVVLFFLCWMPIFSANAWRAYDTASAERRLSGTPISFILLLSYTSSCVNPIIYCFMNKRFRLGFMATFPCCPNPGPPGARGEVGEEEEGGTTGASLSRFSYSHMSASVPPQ

[4] = DRUGMATRIX: Interleukin IL-1 radioligand binding (ligand: [125I] interleukin 1beta); type: cell membranes, Membrane; settings: nih3t3; Not Active = under 50% inhibition at 10 µM
Melanocortin receptor 5 = Melanocortin receptor 5 (Homo sapiens, UniProt P33032); type: cell membranes, HEK293, Membrane; settings: hek293; note: in other assays of this panel Not Active means under 50% inhibition at 10 µM
[5] = target: Tyrosine-protein kinase Fyn (Homo sapiens, UniProt P06241); assay: biochemical; type: cell-based, Insect cells; settings: insect cells
Chain of Tyrosine-protein kinase Fyn (P06241 whole entry): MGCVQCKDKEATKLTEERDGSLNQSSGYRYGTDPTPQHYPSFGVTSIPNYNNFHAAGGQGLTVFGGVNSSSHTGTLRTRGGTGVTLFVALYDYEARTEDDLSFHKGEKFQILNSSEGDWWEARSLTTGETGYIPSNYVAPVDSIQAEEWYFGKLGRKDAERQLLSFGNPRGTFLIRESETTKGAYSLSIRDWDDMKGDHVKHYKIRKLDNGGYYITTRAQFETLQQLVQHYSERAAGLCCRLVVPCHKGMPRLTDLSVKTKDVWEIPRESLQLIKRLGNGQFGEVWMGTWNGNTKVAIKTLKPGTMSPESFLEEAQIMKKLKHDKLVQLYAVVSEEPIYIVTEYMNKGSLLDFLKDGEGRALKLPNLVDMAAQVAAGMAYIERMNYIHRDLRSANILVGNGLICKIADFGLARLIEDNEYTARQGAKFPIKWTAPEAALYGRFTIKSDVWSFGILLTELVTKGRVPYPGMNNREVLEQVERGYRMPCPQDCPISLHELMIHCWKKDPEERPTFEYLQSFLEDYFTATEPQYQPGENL

Chain of Mitogen-activated protein kinase 14 (Q16539 whole entry): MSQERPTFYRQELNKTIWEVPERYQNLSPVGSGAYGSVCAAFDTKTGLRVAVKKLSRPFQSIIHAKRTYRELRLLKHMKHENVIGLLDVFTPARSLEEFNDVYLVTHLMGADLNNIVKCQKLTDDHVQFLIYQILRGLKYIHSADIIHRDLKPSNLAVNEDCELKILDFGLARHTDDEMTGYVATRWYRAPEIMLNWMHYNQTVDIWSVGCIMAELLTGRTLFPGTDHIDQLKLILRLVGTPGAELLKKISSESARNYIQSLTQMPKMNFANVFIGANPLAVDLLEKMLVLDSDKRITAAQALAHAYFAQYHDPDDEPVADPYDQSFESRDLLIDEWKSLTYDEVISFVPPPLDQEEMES
Chain of Melanocortin receptor 5 (P33032 whole entry): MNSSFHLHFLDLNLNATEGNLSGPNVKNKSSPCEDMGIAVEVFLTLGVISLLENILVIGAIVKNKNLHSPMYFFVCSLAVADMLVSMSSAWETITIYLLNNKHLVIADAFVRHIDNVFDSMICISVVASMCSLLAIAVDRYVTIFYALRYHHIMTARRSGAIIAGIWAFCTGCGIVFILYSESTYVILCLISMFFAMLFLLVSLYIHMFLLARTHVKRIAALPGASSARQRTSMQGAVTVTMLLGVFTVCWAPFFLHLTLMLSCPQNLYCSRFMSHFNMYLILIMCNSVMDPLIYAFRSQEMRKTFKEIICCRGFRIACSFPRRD

CC(=O)OC[C@H]1O[C@@H](n2ncc(=O)[nH]c2=O)[C@H](OC(C)=O)[C@@H]1OC(C)=O [AZARIBINE]
Not Active: IC50 [1] | IC50 (Interstitial collagenase) | IC50 [2] | IC50 [3] | IC50 [4] | Ki [4] | IC50 (Melanocortin receptor 5) | IC50 [5]

C[C@H]1[C@H](NC(=O)/C(=N\OC(C)(C)C(=O)O)c2csc(N)n2)C(=O)N1S(=O)(=O)O [AZTREONAM]
Not Active: IC50 [1] | IC50 (Interstitial collagenase) | IC50 [2] | IC50 [3] | IC50 [4] | Ki [4] | IC50 (Melanocortin receptor 5) | IC50 [5]

O=C(O)CCNC(=O)c1ccc(/N=N/c2ccc(O)c(C(=O)O)c2)cc1 [BALSALAZIDE]
Not Active: IC50 [1] | IC50 (Interstitial collagenase) | IC50 [2] | IC50 [3] | IC50 [4] | Ki [4] | IC50 (Melanocortin receptor 5) | IC50 [5]

COc1cc(OC)c(C(=O)CCCN2CCCC2)c(OC)c1 [BUFLOMEDIL]
Not Active: IC50 [1] | IC50 (Interstitial collagenase) | IC50 [2] | IC50 [3] | IC50 [4] | Ki [4] | IC50 (Melanocortin receptor 5) | IC50 [5]

Cn1c(=O)c2c(ncn2C)n(C)c1=O [CAFFEINE]
Not Active: IC50 [1] | IC50 (Interstitial collagenase) | IC50 [2] | IC50 [3] | IC50 [4] | Ki [4] | IC50 (Melanocortin receptor 5) | IC50 [5]

ClC(Cl)(Cl)Cl [CARBON TETRACHLORIDE]
Not Active: IC50 [1] | IC50 (Interstitial collagenase) | IC50 [2] | IC50 [3] | IC50 [4] | Ki [4] | IC50 (Melanocortin receptor 5) | IC50 [5]

CO/N=C(\C(=O)N[C@@H]1C(=O)N2C(C(=O)O)=C(COC(C)=O)CS[C@H]12)c1csc(N)n1 [CEFOTAXIME]
Not Active: IC50 [1] | IC50 (Interstitial collagenase) | IC50 [2] | IC50 [3] | IC50 [4] | Ki [4] | IC50 (Melanocortin receptor 5) | IC50 [5]

CNC1=Nc2ccc(Cl)cc2C(c2ccccc2)=[N+]([O-])C1 [CHLORDIAZEPOXIDE]
Not Active: IC50 [1] | IC50 (Interstitial collagenase) | IC50 [2] | IC50 [3] | IC50 [4] | Ki [4] | IC50 (Melanocortin receptor 5) | IC50 [5]

Cc1cc(O)cc(C)c1Cl [CHLOROXYLENOL]
Not Active: IC50 [1] | IC50 (Interstitial collagenase) | IC50 [2] | IC50 [3] | IC50 [4] | Ki [4] | IC50 (Melanocortin receptor 5) | IC50 [5]

CCCNC(=O)NS(=O)(=O)c1ccc(Cl)cc1 [CHLORPROPAMIDE]
Not Active: IC50 [1] | IC50 (Interstitial collagenase) | IC50 [2] | IC50 [3] | IC50 [4] | Ki [4] | IC50 (Melanocortin receptor 5) | IC50 [5]

NS(=O)(=O)c1cc(C2(O)NC(=O)c3ccccc32)ccc1Cl (stereo not drawn) [CHLORTHALIDONE]
Not Active: IC50 [1] | IC50 (Interstitial collagenase) | IC50 [2] | IC50 [3] | IC50 [4] | Ki [4] | IC50 (Melanocortin receptor 5) | IC50 [5]

O=C(O)CC(O)(CC(=O)O)C(=O)O [CITRIC ACID]
Not Active: IC50 [1] | IC50 (Interstitial collagenase) | IC50 [2] | IC50 [3] | IC50 [4] | Ki [4] | IC50 (Melanocortin receptor 5) | IC50 [5]

CC(C)NCC(O)c1ccccc1Cl (stereo not drawn) [CLORPRENALINE]
Not Active: IC50 [1] | IC50 (Interstitial collagenase) | IC50 [2] | IC50 [3] | IC50 [4] | Ki [4] | IC50 (Melanocortin receptor 5) | IC50 [5]

CN1CCN(C(c2ccccc2)c2ccccc2)CC1 [CYCLIZINE]
Not Active: IC50 [1] | IC50 (Interstitial collagenase) | IC50 [2] | IC50 [3] | IC50 [4] | Ki [4] | IC50 (Melanocortin receptor 5) | IC50 [5]

CN1C[C@@H]2C[C@H]1CN2c1cc2c(cc1F)c(=O)c(C(=O)O)cn2C1CC1 [DANOFLOXACIN]
Not Active: IC50 [1] | IC50 (Interstitial collagenase) | IC50 [2] | IC50 [3] | IC50 [4] | Ki [4] | IC50 (Melanocortin receptor 5) | IC50 [5]

COc1cccc2c1C(=O)c1c(O)c3c(c(O)c1C2=O)C[C@@](O)(C(C)=O)C[C@@H]3O[C@H]1C[C@H](N)[C@H](O)[C@H](C)O1 [DAUNORUBICIN]
Not Active: IC50 [1] | IC50 (Interstitial collagenase) | IC50 [2] | IC50 [3] | IC50 [4] | Ki [4] | IC50 (Melanocortin receptor 5) | IC50 [5]
